Results on 2 molecules are retold here after US20250009743A1, “METHODS OF TREATING CANCERS USING STING AGONISTS” (Dana-Farber Cancer Institute, Inc., priority 2021, published 2025).

Assay [1] deals with orthotopic BP tumors. Nature of the assay: BP (Brca1−/− Trp53−/−) orthotopic tumor growth in FVB mice. Type of assay: in vivo, mouse. As to the method:
Primary mammary tumor cells for orthotopic injection were resuspended in serum-free DMEM containing 40% matrigel (Corning). […] Tumor growth was examined by measuring the greatest longitudinal diameter (length) and the greatest transverse diameter (width) with digital calipers, and tumor volume was calculated by use of the modified ellipsoid formula (0.52×length×width2). Tumors were measured 2-3 times a week. All tumor measurements within single cohorts were performed by the same researcher. Tumor-bearing mice were randomized prior to start of treatment. Drug treatments were started when mean tumor volumes approximated 50-100 mm3. Mice were euthanized by CO2 inhalation when tumor volumes met humane endpoints described in the IACUC (20 mm diameter) protocols or upon severe health deterioration.
For intratumoral injection (i.t.), 250 μg DMXAA (approximately 10 mg/kg body weight) was administered once per week for 3 doses. For i.p. injections, DMXAA was administered at a dose of 10 mg/kg body weight once weekly and terminated if tumor size exceeded 600 mm3. […] Anti-mouse CSF1R antibody (CS7, Eli Lilly) was dosed at 40 mg/kg via i.p. every 3 days.

Assay [2] concerns bone marrow-derived DCs. In words: STING pathway activation in DCs co-cultured with BP tumor cells. Format: cell-based, mouse. As to the method: For flow cytometry analyses of tumor and TDLN samples, single-cell suspensions were obtained as described above (Tissue Digestion). Cells were stained in cold FACS buffer (PBS containing 0.2% BSA and 5 mM EDTA) with LIVE/DEAD Fixable Aqua Dead Cell Stain (Thermo Fisher) for 30 min on ice, followed by blocking with anti-CD16/32 (BioLegend) for 20 min on ice. Cells were then incubated in FACS buffer for 30 min on ice with antibodies specific to CD45 (clone 30-F11, BioLegend), TCR β chain (clone H57-597, BioLegend), CD38 (clone 145-2C11, BioLegend), CD4 (clone RM4-5, BioLegend), CD8a (clone 53-6.7, BioLegend), PD-1 (clone 29F.1A12, BioLegend), CD44 (clone IM7, BioLegend), CD62L (clone MEL-14, BioLegend), IFN-γ (clone XMG1.2, BioLegend), TNF-α (clone MP6-XT22, BioLegend), Granzyme B (clone NGZB, eBioscience), CD11c (clone N418, BioLegend), I-A/I-E (clone M5/114.15.2, BioLegend), CD80 (clone 16-10A1, BioLegend), CD86 (clone GL-1, BioLegend), CD103 (clone 2E7, BioLegend), CD11b (M1/70, BioLegend), F4/80 (clone BM8, BioLegend), phospho-TBK1 (Ser172) (clone D52C2, Cell Signaling Tech.) or phospho-IRF-3 (Ser396) (clone D601M, Cell Signaling Tech.). For intracellular staining, Foxp3/Transcription Factor Staining Buffer Set (eBioscience, #00-5523-00) was used for fixation and permeabilization. […] All data were analyzed using FlowJo software. […]

The subject of assay [3] is BP tumor cells. In words: DNA damage in BP tumor cells (cytosolic dsDNA staining, γ-H2AX flow cytometry). Type of assay: cell-based, mouse. As to the method: For flow cytometry analyses of tumor and TDLN samples, single-cell suspensions were obtained as described above (Tissue Digestion). Cells were stained in cold FACS buffer (PBS containing 0.2% BSA and 5 mM EDTA) with LIVE/DEAD Fixable Aqua Dead Cell Stain (Thermo Fisher) for 30 min on ice, followed by blocking with anti-CD16/32 (BioLegend) for 20 min on ice. Cells were then incubated in FACS buffer for 30 min on ice with antibodies specific to CD45 (clone 30-F11, BioLegend), TCR β chain (clone H57-597, BioLegend), CD38 (clone 145-2C11, BioLegend), CD4 (clone RM4-5, BioLegend), CD8a (clone 53-6.7, BioLegend), PD-1 (clone 29F.1A12, BioLegend), CD44 (clone IM7, BioLegend), CD62L (clone MEL-14, BioLegend), IFN-γ (clone XMG1.2, BioLegend), TNF-α (clone MP6-XT22, BioLegend), Granzyme B (clone NGZB, eBioscience), CD11c (clone N418, BioLegend), I-A/I-E (clone M5/114.15.2, BioLegend), CD80 (clone 16-10A1, BioLegend), CD86 (clone GL-1, BioLegend), CD103 (clone 2E7, BioLegend), CD11b (M1/70, BioLegend), F4/80 (clone BM8, BioLegend), phospho-TBK1 (Ser172) (clone D52C2, Cell Signaling Tech.) or phospho-IRF-3 (Ser396) (clone D601M, Cell Signaling Tech.). For intracellular staining, Foxp3/Transcription Factor Staining Buffer Set (eBioscience, #00-5523-00) was used for fixation and permeabilization. For cytokine analysis, cells were stimulated with Leukocyte Activation Cocktail with protein transport inhibitor Brefeldin A (BD Biosciences, #550583) at 37° C. for 4 hours prior to the staining. Analysis of ϵ-HA2X (Ser139) was performed according to manufacturer's instructions. Briefly, ice-cold 70% ethanol (Decon) was added dropwise to the cell pellet while vortexing. Cells were then incubated at −20° C. for 1 hour and washed three times with cold staining buffer. […] All data were analyzed using FlowJo software.
BRCA1-deficient tumor cells were cultured on glass coverslips in 6-well plates. […] Fluorescence intensity of cytosolic dsDNA were analyzed using ImageJ/Fiji software as described in Pantelidou C, et al. Cancer Discov 2019; 9 (6): 722-37.
Background: A flow cytometer gives signals particle by particle.

Where [4] appears, read: olaparib 50 mg/kg i.p. q.d., DMXAA 10 mg/kg intratumoral once per week, 3 doses, start around 100 mm3, FIG. 9A.

As to `O=C(c1cc(Cc2n[nH]c(=O)c3ccccc23)ccc1F)N1CCN(C(=O)C2CC2)CC1` [olaparib], the BP tumor growth result in assay [1] (olaparib 50 mg/kg i.p. daily, FIG. 1C) was “modest”; in assay [1] (setting [4]), “modest tumor growth inhibition”. Besides, in assay [2] (DCs co-cultured 24 hours with olaparib-treated BP cells, FIG. 5I), the “STING pathway activation (p-TBK1+ p-IRF3+) in DCs” value is listed as “activated the STING pathway in DCs”. For the same molecule, the “cytosolic dsDNA” value in assay [3] (5 μM olaparib, two days, FIG. 5B) is reported as “induced accumulation of cytosolic dsDNAs”. In addition, in assay [3] (olaparib, FIG. 5C), the γ-H2AX entry is “two-fold increase”.
Regarding `Cc1ccc2c(=O)c3cccc(CC(=O)O)c3oc2c1C` [DMXAA, 5,6-dimethyl-xanthenone-4-acetic acid], the BP tumor growth result in assay [1] (setting [4]) was “modest tumor growth inhibition”. In addition, the “activation of STING pathway in co-cultured DCs” value in assay [2] (BP cells treated with CM of DMXAA-pre-treated TEMs, then olaparib, FIG. 7I) is on record as “restored”. The “BP cells' DNA damage (gH2AX) in response to olaparib” value in assay [3] (BP cells treated with CM of DMXAA-pre-treated TEMs, FIG. 7I) is on record as “restored”.
